From publication PMC11963559, “Identification of novel thiazole derivatives as flaviviral protease inhibitors effective against Dengue (DENV2) and Japanese encephalitis viruses” (Antimicrobial Agents and Chemotherapy, 2025)

What was measured:
DENV2 NS2B–NS3 protease = target: T1, DENV2 NS2B–NS3 protease (Dengue virus type 2, UniProt P14340); experiment: In vitro DENV2 NS2B/NS3pro inhibition assay using a FRET substrate; type: biochemical; conditions: IC50 (µM), DENV protease inhibitory activity, 5 µM substrate, 10 nM NS2b-NS3pro, compounds at 1, 10 and 100 µM, 1 h at RT; compounds 3ao–3av
T1 construct: Activity of recombinant dengue 2 virus NS3 protease in the presence of a truncated NS2B co-factor; The N-terminal domain of NS3 contains a highly conserved protease-active core; made in house; host or cells: Escherichia coli BL21(DE3)
T1 sequence (P14340 1476-1653): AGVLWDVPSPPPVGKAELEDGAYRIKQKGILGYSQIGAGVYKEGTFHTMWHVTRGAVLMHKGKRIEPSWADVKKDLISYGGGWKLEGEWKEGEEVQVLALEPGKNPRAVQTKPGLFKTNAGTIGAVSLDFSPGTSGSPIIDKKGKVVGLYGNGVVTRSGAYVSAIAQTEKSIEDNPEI
T1 sequence (P14340 1398-1437): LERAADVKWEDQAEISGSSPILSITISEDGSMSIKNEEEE
Procedure: To assess the anti-DENV NS2B–NS3 activity of the compounds, we expressed the DENV2 NS2B–NS3 protease in BL21DE3 cells and subsequently purified it using Ni-NTA affinity chromatography, as outlined in Materials and Methods ([39], [40]). The protease activity assay was performed using different concentrations (1, 2.5, 5, 10, 25, 50, 75, and 100 µM) of a fluorogenic substrate (Abs-Nle-Lys-Arg-Arg-Ser-3-(NO2)Tyr) at various time points (5, 15, 30, 45, and 60 min), as described previously ([39], [41]). […] Therefore, all subsequent assays were conducted with a 1 h incubation time.
The selected compounds were analyzed using in vitro protease assays performed in black 96-well plates. […] All assays were performed in triplicate. The release of free AMC was measured using a Varioskan LUX multimode microplate reader (Thermo Fisher Scientific) at excitation and emission wavelengths of 380 and 460 nm, respectively. Control fluorescence values obtained in the absence of inhibitors were considered 100%, and those obtained in the presence of inhibitors were calculated as the percentage of inhibition of the control using Microsoft Excel and plotted using Origin Pro 2023b. The background AMC in the absence of protease was subtracted before data analysis. Further, protease assay was done using different concentration of the compounds (1, 10, and 100 µM) to evaluate the IC50 for the in vitro assay. IC50 curves were fitted and determined by fitting the nonlinear equation in Origin2023b software. A similar approach was used to analyze the enzymatic kinetics of protease inhibition. The reaction progress was monitored by the release of free aminomethylcoumarin (AMC), as previously described. The substrate was incubated with or without the inhibitor in the aforementioned reaction buffer in the presence of varying concentrations of the substrate. The reactions were initiated by the addition of the NS2B–NS3 protease. Protease activity was monitored for 1 h based on the initial rate of increase in fluorescence intensity at 460 nm, with an excitation wavelength of 380 nm. The results were analyzed using Origin Pro 2023b and the Michaelis–Menten equation to obtain the apparent Michaelis–Menten constants and maximal velocities. All assays were performed in triplicate. For each tested compound, two different concentrations of the inhibitor (0, 10, and 25 µM) were used at various concentrations (0–250 μM) of the substrate. The mechanism of inhibition was determined by observing the deviations in the apparent Km and Vmax values.

JEV = JEV replication in BHK-21 cells, viral RNA by qRT-PCR; type: cell-based; conditions: for IC50: BHK-21, 24 h, read-out: IC50, reduction of JEV viral RNA
Procedure: Therefore, we sought to evaluate the efficacy of these compounds against JEV to assess their broad-spectrum anti-viral action against flaviviruses.
BHK-21 cells were seeded in a 24-well cell culture plate at a density of (0.25 × 10^6 cells/well) with regular growth medium containing DMEM + 10% FBS 1 day prior to infection in triplicate. Once the cells reached 85%–90% confluence, they were infected with DENV2 and JEV virus inoculum comprising DMEM + 2% FBS and 10 µM of the compound at an MOI of 0.1. Cells were incubated for 1.5 h at 37 °C with the virus-compound inoculum, with gentle rocking every 10 min to ensure even coverage and prevent the cellular monolayer from drying. […] The cell culture supernatant was aspirated and washed with PBS, and the cellular monolayer was used for viral RNA isolation.
Total cellular RNA was extracted from BHK-21 cells using TRIzol reagent, according to the manufacturer’s instructions (Ambion Life Technologies, USA). RNA quantity and integrity were determined prior to use on a NanoDrop spectrophotometer (Thermo Fisher Scientific). Then, 1 µg of total RNA from each experimental sample was used to synthesize cDNA by reverse transcriptase (RT) by incubating the RNAs with Moloney murine leukemia virus (M-MuLV) RT, with specific RT primer, 5′-[…]-3′ (Tm = 63 °C), and deoxynucleoside triphosphates (dNTPs) (New England Biolabs) at 42 °C for 50 min, followed by inactivation at 70 °C for 15 min.
To quantify the viral RNA copy number, quantitative RT-PCR (qRT-PCR) was performed in duplicate using iTaq Universal SYBR Green Supermix (Bio-Rad). The cDNAs used for qPCR analysis were prepared using Power SYBR Green PCR Master Mix (Bio-Rad, #172–5125) in a QuantStudio5 Applied Biosystems real-time PCR system. […] Delta Ct for both control and compound-treated samples was determined and subsequently analyzed by determining the delta Ct to determine the mRNA expression of target genes in control vs treated samples.

| SMILES | IC50 (DENV2 NS2B–NS3 protease) [µM] | IC50 (JEV) [µM] | SI, selectivity index (CC50/IC50) (JEV; JEV, BHK-21 cells, qRT-PCR IC50) |
| --- | --- | --- | --- |
| COc1ccc(-c2csc(N/N=C(\C)c3ccc(O)cc3)n2)cc1 [3aq] | 15.1 | 1.03 ± 0.21 | – |
| COc1ccc(-c2csc(N/N=C(\C)c3cc(O)cc(O)c3)n2)cc1 [3au] | 20.8 | 1.16 ± 0.16 | 67.8 |
